Laboratory results from ChEMBL document CHEMBL4393730, “Thiazolidinedione and thiazole derivatives potentiate norfloxacin activity against NorA efflux pump over expression in Staphylococcus aureus 1199B strains” (Bioorg Med Chem, 2019).

What was measured:
[1] = Cytotoxicity against mouse L929 cells assessed as cell growth inhibition at 50 ug/ml measured after 72 hrs by MTT method relative to control; format: cell-based; details: read-out: GI
Staphylococcus aureus [2] = test: Antibacterial activity against wild type Staphylococcus aureus 1199 devoid of norA efflux pump assessed as norfloxacin MIC measured after 24 hrs by broth microdilution method (reference value: 64 +/- 1 microg/ml); format: functional; details: Staphylococcus aureus, 1199, 24 h
[3] = target: T1, Quinolone resistance protein NorA (Staphylococcus aureus) (UniProt P0A0J7); test: Inhibition of NorA efflux pump in multidrug resistant Staphylococcus aureus 1199B mutant assessed as norfloxacin MIC measured after 24 hrs by broth microdilution method (reference value: 256 +/- 1 microg/ml)
T1 sequence (whole entry): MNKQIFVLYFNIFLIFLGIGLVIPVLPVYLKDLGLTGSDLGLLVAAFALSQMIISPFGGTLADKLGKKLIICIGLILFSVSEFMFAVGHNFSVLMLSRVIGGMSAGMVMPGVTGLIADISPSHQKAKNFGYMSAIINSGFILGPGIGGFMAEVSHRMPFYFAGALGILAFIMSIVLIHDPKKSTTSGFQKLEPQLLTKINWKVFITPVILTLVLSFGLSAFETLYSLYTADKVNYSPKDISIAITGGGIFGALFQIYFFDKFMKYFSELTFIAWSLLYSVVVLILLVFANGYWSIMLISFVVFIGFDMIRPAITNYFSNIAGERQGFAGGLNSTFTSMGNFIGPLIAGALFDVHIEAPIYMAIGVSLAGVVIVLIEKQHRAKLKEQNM

Staphylococcus aureus [4] = test: Antibacterial activity against wild type Staphylococcus aureus 1199 devoid of NorA efflux pump measured after 24 hrs by broth microdilution method; format: functional; details: Staphylococcus aureus, 1199, 24 h
Staphylococcus aureus [5] = test: Antibacterial activity against multidrug resistant Staphylococcus aureus 1199B mutant strain carrying NorA efflux pump assessed as growth inhibition measured after 24 hrs by broth microdilution method; format: functional
Staphylococcus aureus [6] = test: Antibacterial activity against wild type Staphylococcus aureus 1199 devoid of norA efflux pump assessed as reduction in norfloxacin MIC measured after 24 hrs by broth microdilution method relative to norfloxacin; format: functional
[7] = target: T1, Quinolone resistance protein NorA (Staphylococcus aureus); test: Inhibition of NorA efflux pump in multidrug resistant Staphylococcus aureus 1199B mutant assessed as reduction in norfloxacin MIC measured after 24 hrs by broth microdilution method relative to norfloxacin

Structure (SMILES): COc1ccc(Br)cc1/C=N/Nc1nc(-c2ccccc2)cs1
- inhibition at 72 h, 50 ug/ml [1]: 24.4%
- MIC (Staphylococcus aureus [2]): 0.5 µg/mL
- MIC [3]: 50.8 µg/mL
- MIC (Staphylococcus aureus [4]): > 1020 µg/mL
- MIC (Staphylococcus aureus [5]): > 1020 µg/mL
- fold change (FC) (Staphylococcus aureus [6]): 3
- fold change (FC) [7]: 3

Structure (SMILES): COc1ccc(Br)cc1/C=N/Nc1nc(-c2ccc([N+](=O)[O-])cc2)cs1
- inhibition at 72 h, 50 ug/ml [1]: 39.9%
- MIC (Staphylococcus aureus [2]): 5 µg/mL
- MIC [3]: 128 µg/mL
- MIC (Staphylococcus aureus [4]): > 1020 µg/mL
- MIC (Staphylococcus aureus [5]): > 1020 µg/mL

Structure (SMILES): COc1ccc(Br)cc1/C=N/Nc1nc(-c2ccc(Cl)cc2)cs1
- inhibition at 72 h, 50 ug/ml [1]: 30.1%
- MIC (Staphylococcus aureus [2]): 0.63 µg/mL
- MIC [3]: 40.3 µg/mL
- MIC (Staphylococcus aureus [4]): > 1020 µg/mL
- MIC (Staphylococcus aureus [5]): > 1020 µg/mL
- fold change (FC) (Staphylococcus aureus [6]): 3
- fold change (FC) [7]: 3

Structure (SMILES): COc1ccc(Br)cc1/C=N/Nc1nc(-c2ccc(F)cc2)cs1
- inhibition at 72 h, 50 ug/ml [1]: 31.2%
- MIC (Staphylococcus aureus [2]): 1020 µg/mL
- MIC [3]: 1020 µg/mL
- MIC (Staphylococcus aureus [4]): > 1020 µg/mL
- MIC (Staphylococcus aureus [5]): > 1020 µg/mL

Structure (SMILES): COc1ccc(Br)cc1/C=N/Nc1nc(-c2ccc(Br)cc2)cs1
- inhibition at 72 h, 50 ug/ml [1]: 17.3%
- MIC (Staphylococcus aureus [2]): 16 µg/mL
- MIC [3]: 64 µg/mL
- MIC (Staphylococcus aureus [4]): > 1020 µg/mL
- MIC (Staphylococcus aureus [5]): > 1020 µg/mL
- fold change (FC) (Staphylococcus aureus [6]): 3
- fold change (FC) [7]: 3

Structure (SMILES): COc1ccc(Br)cc1/C=N/Nc1nc(-c2ccc(-c3ccccc3)cc2)cs1
- inhibition at 72 h, 50 ug/ml [1]: 15%
- MIC (Staphylococcus aureus [2]): 1020 µg/mL
- MIC [3]: 1020 µg/mL
- MIC (Staphylococcus aureus [4]): > 1020 µg/mL
- MIC (Staphylococcus aureus [5]): > 1020 µg/mL
